≈ marks a conversion by molar mass, not a printed value. Each block holds one compound with its values, some of them ahead of it.
Columns and labels:
[1] = system: T. cruzi-infected ARPE cells; assay: Treatment of T. cruzi-infected ARPE cells, imaging; assay type: cell-based, Trypanosoma cruzi
Description: Four confocal dishes were prepared with 10,000 ARPE cells, which were adhered overnight at 37° C. The four dishes were ARPE control cells, non-infected but 5 μM Compound 2-treated cells, non-treated but infected cells, and infected cells treated with 5 μM Compound 2. For the infected dishes, ARPE media was removed and replaced with 2 mL of infectious amastigotes and trypomastigotes from the ARPE passaged plate. The dishes were then incubated for 2 hours at 37° C. The treated dishes were incubated with 5 μM Compound 2 for 5 days at 37° C., while untreated dishes were incubated in fresh media without Compound 2 for 5 days at 37° C. After the 5-day period, cells were washed 3 times in ARPE media and fixed with 1 mL 4% paraformaldehyde. Cells were visualized using an EVOS cell imaging system. Amastigotes appeared as small, dense, and mostly birefringent in images.
The experiment above was repeated using 1 μM Compound 2.
Four confocal dishes with 10,000 ARPE cells were prepared and adhered overnight at 37° C. The four dishes were: 1) ARPE control cells; 2) non-infected cells treated with 1 μM Compound 2; 3) untreated infected cells; and 4) T. cruzi-infected cells treated with 1 μM Compound 2. For the infected dishes, ARPE media was removed and replaced with 2 mL of infectious amastigotes and trypomastigotes expressing tdTomato (from ARPE passaged plate). The dishes were then incubated overnight for 7 days at 37° C. The untreated dishes were incubated in fresh media without Compound 2 for 7 days at 37° C. After the 7-day incubation period, cells were washed 3 times in ARPE media and fixed with 1 mL 4% paraformaldehyde. tdTomato fluorescence, which is indicative of viable T. cruzi, was then observed via fluorescence microscopy.
ARPE cells were plated in confocal dishes (20,000 cells per dish) and incubated overnight at 37° C. Cells were infected with T. cruzi by incubating cells with T. cruzi amastigotes and trypomastigotes expressing tdTomato (˜2×10^5 cells in total) for 24 hours at 37° C. Uninfected cells served as controls. Following the T. cruzi incubation period, extracellular parasites were removed, and the medium was replaced with DMEM/F12 culture media with or without 1 μM Compound 2. The cells were incubated further for 24 hours at 37° C. Cells were then treated two more times with fresh DMEM/F12 culture media with or without 1 μM Compound 2 and incubated for 24 hours at 37° C. Following fixation of cells in 4% paraformaldehyde, plates were imaged for tdTomato fluorescence, which is indicative of viable T. cruzi, such that the effects of repeated Compound 2 treatment could be compared to a single treatment with Compound 2.
ARPE cells were plated in confocal dishes (20,000 cells per dish) and incubated overnight at 37° C. Cells were infected with T. cruzi by incubating cells with T. cruzi amastigotes and trypomastigotes expressing tdTomato (˜2×10^5 cells in total) for 24 hours at 37° C. before washing dishes three times with DMEM/F12 culture media. Uninfected plates served as controls. The dishes were then treated with 2 μM Compound 2 or left untreated as a control and incubated further for 5 days at 37° C. The treated dish received a single treatment of Compound 2 on day 1. Dishes were washed twice with DMEM/F12 media and fixed in 4% paraformaldehyde before being imaged using confocal microscopy. […] The other Compound 2 dishes that were not incubated with T. cruzi a second time were used as controls. Following fixation of cells in 4% paraformaldehyde, tdTomato fluorescence of the cells was assessed using confocal microscopy.
ARPE cells were plated in confocal dishes (20,000 cells per dish) and incubated overnight at 37° C. Dishes were incubated with T. cruzi amastigotes and trypomastigotes expressing tdTomato (˜2×10^5 cells) for 48 hours at 37° C. Untreated cells served as controls. Cells were then washed 3 times with cell medium, treated with 5 μM Compound 2 or left untreated as a control and incubated further for 2 days at 37° C. […]

[2] = system: T. cruzi amastigotes and trypomastigotes; assay: Viability of tdTomato T. cruzi amastigotes and trypomastigotes, fluorescence; assay type: cell-based, Trypanosoma cruzi; details: 25 μM, 48 hours at 37° C.
Description: The viability of a mixture of T. cruzi amastigotes and trypomastigotes after exposure to 25 μM of the compounds of the disclosure was determined. 2×10^5 parasites/100 μL were plated in 96-well plates. Parasites expressing tdTomato were used to assess parasite viability using fluorescence measurements. Parasites were incubated with 25 μM of the compounds of the disclosure for 48 hours at 37° C. After the incubation period, the viability of amastigotes and trypomastigotes was assessed by measuring the fluorescence intensity at 510 nm-590 nm using a Tecan plate reader, where the presence of fluorescence indicated viable amastigotes/trypomastigotes.

T. cruzi epimastigotes [3] = assay: T. cruzi epimastigote toxicity, visually assessed; assay type: cell-based, Trypanosoma cruzi; details: 48 hours at 30° C.; for killing at 100 µM: Trypanosoma cruzi, epimastigotes, read-out: T. cruzi death @ 100 μM
Description: A 1:20 working dilution of T. cruzi epimastigotes was prepared in LIT1029 medium from a saturated (˜4×10^6 cells/mL) culture. 100 μL of the 1:20 working dilution was plated, and the epimastigotes were incubated with a compound of the disclosure at varying concentrations for 48 hours at 30° C. Following T. cruzi epimastigote treatment with a compound of the disclosure, the toxicity of compounds towards T. cruzi epimastigotes was visually assessed.

L. major promastigotes = assay: L. major promastigote viability, propidium iodide flow cytometry; assay type: cell-based, Leishmania major; details: 50 μM, 48 hours at 24° C.
Description: 5×10^5 L. major promastigotes were treated with vehicle control (DMSO), […], 5 μM Compound 5, 50 μM Compound 2, 50 μM Compound 5, or […] for 48 hours at 24° C. Promastigote viability was then assessed via a propidium iodide flow cytometry assay. Propidium iodide is only taken up by dead cells, and the presence of fluorescence in a promastigote sample reflects compound efficacy.

[4] = system: T. cruzi-infected VERO cells; assay: Treatment of T. cruzi-infected VERO cells, confocal microscopy; assay type: cell-based, Trypanosoma cruzi; details: 5 μM, 5 days
Description: 2×10^4 VERO cells were plated in individual confocal dishes and allowed to adhere for 16 hours at 37° C. […] The T. cruzi-infected dishes were incubated with ˜2×10^6 T. cruzi/mL for 24 hours at 37° C. to allow for internalization of parasites. T. cruzi parasites expressed tdTomato, which allowed for visualization of parasites within cells. After the 24-hour T. cruzi incubation period, extracellular parasites were removed from culture dishes. The cells were washed 3 times with cell culture media (10% fetal bovine serum; 1% penicillin/streptomycin). Designated plates were then incubated with 5 μM Compound 2 or 5 μM Compound 7 for 5 days at 37° C. Cells were then fixed in 2% paraformaldehyde and tdTomato fluorescence in cells was assessed via confocal microscopy.

L. major-infected MDMs = assay: L. major-infected human MDMs, quantitative cell bioimaging; assay type: cell-based, Leishmania major; details: 2 μM or 20 μM
Description: Human MDMs were cultured on glass slides and incubated with metacyclic L. major for 24 hours to allow for internalization of parasites. After the 24-hour L. major incubation period, extracellular parasites were removed from the culture. 24 hours after the removal of extracellular parasites, infected cells were treated with vehicle control (DMSO), 5 μM MTF, 1 μM Compound 2, 5 μM Compound 2, 10 μM Compound 2, 2 μM Compound 7, or 20 μM Compound 7. Following treatment, the cells were fixed with 2% paraformaldehyde and subsequently stained with the DNA stain Hoechst 33342. The stained cover slips were transferred onto glass slides, and quantitative cell bioimaging was utilized to determine the number of amastigotes per 500 cells using a CellInsight CX5 High Content screening platform.

T. cruzi epimastigotes [5] = assay: ATP viability assay, reference drugs, epimastigotes; assay type: cell-based; details: Trypanosoma cruzi, 48 hours at 37° C.
Description: (§1) T. cruzi epimastigotes, amastigotes, or trypomastigotes were plated at 2×10^5 cells per well in a 96 well plate. Plated epimastigotes were prepared in LIT1029 medium, while amastigotes and trypomastigotes were collected after being passaged in ARPE cells. T. cruzi cells were treated with 0 μM, 0.39 μM, 0.78 μM, 1.56 μM, 3.125 μM, 6.25 μM, 12.5 μM, 25 μM, 50 μM, or 100 μM of nifurtimox for 48 hours at 37° C. After treatment with nifurtimox, T. cruzi viability was assessed via an ATP assay. An increase in RLU indicated the presence of ATP and viable cells.
as §1, with “benznidazole” for “nifurtimox”, “benznidazole,” for “nifurtimox,”, “RLUs” for “RLU”

T. cruzi trypomastigotes = assay: ATP viability assay, reference drugs, trypomastigotes; assay type: cell-based; details: Trypanosoma cruzi, 48 hours at 37° C.
Description: as §1
as §1, with “benznidazole” for “nifurtimox”, “benznidazole,” for “nifurtimox,”, “RLUs” for “RLU”

T. cruzi amastigotes = assay: ATP viability assay, reference drugs, amastigotes; assay type: cell-based; details: Trypanosoma cruzi, 48 hours at 37° C.
Description: as §1
as §1, with “benznidazole” for “nifurtimox”, “benznidazole,” for “nifurtimox,”, “RLUs” for “RLU”

SMILES: O=C(NO)C(c1ccccc1)c1c(-c2ccccc2)[nH]c2ccccc12 (centres unmarked) [Compound 1, N-hydroxy-2-phenyl-2-(2-phenyl-1H-indol-3-yl)acetamide]
number of intracellular parasites in ARPE culture ([1]; 10 μM once per day for 2 days): decreased the number of intracellular parasites | toxicity to T. cruzi amastigotes and trypomastigotes [2]: most toxic | Concentration at which T. cruzi epimastigote death is greater than or equal to ~99% (T. cruzi epimastigotes [3]): 100 µM | killing at 100 µM (T. cruzi epimastigotes [3]): 100%

SMILES: Cc1[nH]c2ccccc2c1C(C(=O)NO)c1ccccc1 (centres unmarked) [Compound 3, N-hydroxy-2-(2-methyl-1H-indol-3-yl)-2-phenylacetamide]
killing at 100 µM (T. cruzi epimastigotes [3]): 0%

SMILES: O=C(NO)C(c1ccccc1)c1c(-c2cccc3ccccc23)[nH]c2c1ccc1ccccc12 (centres unmarked) [Compound 4, N-hydroxy-2-(2-(naphthalen-1-yl)-1H-benzo[g]indol-3-yl)-2-phenylacetamide]
killing at 100 µM (T. cruzi epimastigotes [3]): 0%

SMILES: CC(C)c1ccc(C(C(=O)NO)c2c(-c3ccc4ccccc4c3)[nH]c3ccccc23)cc1 (centres unmarked) [Compound 5, N-hydroxy-2-(4-isopropylphenyl)-2-(2-(naphthalen-2-yl)-1H-indol-3-yl)acetamide]
efficacy on L. major promastigote survival (L. major promastigotes): higher efficacy than MTF or the vehicle control

SMILES: COc1ccc(C(C(=O)NO)c2c(-c3ccc4ccccc4c3)[nH]c3ccccc23)cc1 (centres unmarked) [Compound 6, N-hydroxy-2-(4-methoxyphenyl)-2-(2-(naphthalen-2-yl)-1H-indol-3-yl)acetamide]
killing at 100 µM (T. cruzi epimastigotes [3]): 0%

SMILES: Cn1c(-c2ccc3ccccc3c2)c(C(C(=O)NO)c2ccccc2)c2ccccc21 (centres unmarked) [Compound 7, N-hydroxy-2-(1-methyl-2-(naphthalen-2-yl)-1H-indol-3-yl)-2-phenylacetamide]
parasitic burden ([1]; 1 μM, 3 days): decreased parasitic burden | protection from a recurring infection ([1]; 1 μM, 3 days): not protected from a recurring infection | T. cruzi in ARPE cells (CherryTomato fluorescence) ([1]; 2 μM, two days): eradicated T. cruzi | T. cruzi infections in ARPE cells ([1]; 2.5 μM, 3 days): minimal | T. cruzi in ARPE cells ([1]; 5 μM, 3 days): eradicated | intracellular T. cruzi and re-infection ([1]; single dose of 2 μM, 2 days): killed intracellular T. cruzi and protected the cells from re-infection | toxicity to T. cruzi amastigotes and trypomastigotes [2]: most toxic | Concentration at which T. cruzi epimastigote death is greater than or equal to ~99% (T. cruzi epimastigotes [3]): ≥100 µM | killing at 100 µM (T. cruzi epimastigotes [3]): 100% | T. cruzi infection in VERO cells [4]: eradication of T. cruzi infection | number of parasites per cell (L. major-infected MDMs): decreased the number of parasites per cell

SMILES: NC(=O)C(c1ccccc1)c1c(-c2ccc3ccccc3c2)[nH]c2ccccc12 (centres unmarked) [Compound 8, 2-(2-(naphthalen-2-yl)-1H-indol-3-yl)-2-phenylacetamide]
Concentration at which T. cruzi epimastigote death is greater than or equal to ~99% (T. cruzi epimastigotes [3]): 50 µM | killing at 100 µM (T. cruzi epimastigotes [3]): 100%

SMILES: N#CC(c1ccccc1)c1c(-c2ccc3ccccc3c2)[nH]c2ccccc12 (centres unmarked) [Compound 9, 2-(2-(naphthalen-2-yl)-1H-indol-3-yl)-2-phenylacetonitrile]
Concentration at which T. cruzi epimastigote death is greater than or equal to ~99% (T. cruzi epimastigotes [3]): ≥100 µM | killing at 100 µM (T. cruzi epimastigotes [3]): 100%

SMILES: CCCCn1c(-c2ccc3ccccc3c2)c(C(C(=O)NO)c2ccccc2)c2ccccc21 (centres unmarked) [Compound 10, 2-(1-butyl-2-(naphthalen-2-yl)-1H-indol-3-yl)-N-hydroxy-2-phenylacetamide]
toxicity to T. cruzi amastigotes and trypomastigotes [2]: most toxic | Concentration at which T. cruzi epimastigote death is greater than or equal to ~99% (T. cruzi epimastigotes [3]): 25 µM | killing at 100 µM (T. cruzi epimastigotes [3]): > 50%

SMILES: CN(C)c1ccc(C(C(=O)NO)c2c(-c3ccc4ccccc4c3)[nH]c3ccccc23)cc1 (centres unmarked) [Compound 11, 2-(4-(dimethylamino)phenyl)-N-hydroxy-2-(2-(naphthalen-2-yl)-1H-indol-3-yl)acetamide]
Concentration at which T. cruzi epimastigote death is greater than or equal to ~99% (T. cruzi epimastigotes [3]): 100 µM | killing at 100 µM (T. cruzi epimastigotes [3]): 100%

SMILES: O=C(Cn1ccnc1[N+](=O)[O-])NCc1ccccc1 [benznidazole]
MIC (T. cruzi epimastigotes [5]): > 100 µM | clearance of T. cruzi infection in ARPE cells ([1]; 2 μM, 2 days): not cleared from T. cruzi infection | MIC (T. cruzi trypomastigotes): > 100 µM | MIC (T. cruzi amastigotes): 100 µM (≈ 26 µg/mL)

MIC (T. cruzi epimastigotes [5]): 25 µM (≈ 7.18 µg/mL) | MIC (T. cruzi trypomastigotes): 6.25 µM (≈ 1.8 µg/mL) | MIC (T. cruzi amastigotes): 3.12 µM (≈ 0.896 µg/mL)
SMILES: CC1CS(=O)(=O)CCN1/N=C/c1ccc([N+](=O)[O-])o1 (centres unmarked) [nifurtimox]

Source: US12029728B2, “Small molecules with anti-protozoan activity” (New Mexico Tech University Research Park Corporation, priority 2018, dated 2024)
